This is an account of results in patent US7446122B2, “Substituted indole derivatives” (Cephalon, Inc., priority 2003, dated 2008).

Where only a bound is given, the exact number is not on record here.

Data set [1] concerns prostate cancer cell line (LNCaP). Kind of data set: Cell cytotoxicity, MTT assay, LNCaP. The class given is cell-based. The conditions noted are these: Homo sapiens, 72 h, three days incubation. The method, then: (§1) Normal prostate cells (PREC, Cambrex East Rutherford N.J.), prostate cancer cell line (LNCaP, ATCC), PBL (peripheral blood leukocytes-buffy coat San Diego Blood Bank), and primary CLL cells were incubated for one to two days in RPMI-1640 and 10% FBS (fetal bovine serum). They were plated in 96-well plates at 100,000 cells/well. Titrated concentrations of the compound to be tested were added to the culture medium. The cells were incubated three days at 37° C., 5% CO2. Viability of the cells was assayed by standard MTT assay. Each drug concentration was done in duplicate. MTT assay: 10 μl of 12 mM 3,[4,5-dimethylthiazol-2-yl]-2,5-diphenyltetrazolium bromide (MTT) (SIGMA) was added to each well. The cells were incubated at 37° C., 5% CO2 for 4 hours. 100 μl of 20% SDS, 0.015M HCl was added to each well and the cells were incubated overnight. The plates were read at absorbance 595 nm.
(In general: Tetrazolium assays rely on reduction of a dye to a coloured formazan, in cell work by metabolically active cells.)

The subject of data set [2] is Normal prostate cells (PREC). Put plainly: Cell cytotoxicity, MTT assay, PREC. The class given is cell-based. The conditions noted are these: Homo sapiens, 72 h, three days incubation. The method, then:
as §1

A further data set concerns primary CLL cells. Kind of data set: Cell cytotoxicity, MTT assay, primary CLL cells. Format: cell-based. The note with it: 72 h, three days incubation. As for the experimental part: as §1
Data set [3] concerns cyclin D1 transcripts in LNCaP cells. Kind of data set: Cyclin D1 transcript expression by quantitative PCR in LNCaP cells. Format: cell-based. The conditions noted are these: 24 hours, compound 42 (50 μM), compound 36 (100 μM), compound 1 (20 μM), normalized to 18s, FIG. 2. As for the experimental part:
Cyclin D1 Transcript Expression Levels as measured by quantitative PCR assay. LNCaP cells were cultured at 37° C., 5% CO2 for 24 hours untreated or in the presence of R-etodolac (200 μM), compound 42 (50 μM), compound 36 (100 μM), or compound 1 (20 μM) (see Table II for structures). Cells were harvested by trypsinization, washed with PBS, and stored at −80° C. Total cellular RNA was prepared from cell pellets using the RNEasy® Mini kit (Qiagen, Inc., Valencia, Calif.). RNA was quantified by spectrophotometer. Approximately 2 μg of RNA was used to prepare cDNA using the ThermoScript™ RT-PCR System (Invitrogen, Carlsbad, Calif.).
The levels of cyclin D1 transcripts in the cDNA samples were measured using a quantitative PCR (qPCR) assay specific for cyclin D1. The cyclin D1 transcript was amplified using the following primer pair:
The cyclin D1 primers are described in a manuscript from Takayasu et al. (2001 Clin. Cancer Res. 7:901-908). All assays were performed in duplicate. All qPCR assays were performed and analyzed using a Bio-Rad iCycler (Bio-Rad, Hercules, Calif.). The levels of cyclin D1 transcripts were normalized for total input cDNA by performing a separate assay to detect the levels of a housekeeping gene (18s) using the following primer pair:
The samples were normalized for 18s transcript levels using the method of Livak et al. (2001 Methods 25:402-408). The level of cyclin D1 transcripts in the control sample was set to 1. FIG. 2 represents the averaged normalized cyclin D1 transcripts±standard deviation for three independent experiments (two independent experiments for compound 1).

The target in data set [4] is T1, Cyclooxygenase-2 (human recombinant, expressed in Sf9 cell) (Homo sapiens, UniProt P35354).
T1 construct: purchased Cayman 60122; host or cells: Sf9 cell
T1 sequence (P35354 18-604): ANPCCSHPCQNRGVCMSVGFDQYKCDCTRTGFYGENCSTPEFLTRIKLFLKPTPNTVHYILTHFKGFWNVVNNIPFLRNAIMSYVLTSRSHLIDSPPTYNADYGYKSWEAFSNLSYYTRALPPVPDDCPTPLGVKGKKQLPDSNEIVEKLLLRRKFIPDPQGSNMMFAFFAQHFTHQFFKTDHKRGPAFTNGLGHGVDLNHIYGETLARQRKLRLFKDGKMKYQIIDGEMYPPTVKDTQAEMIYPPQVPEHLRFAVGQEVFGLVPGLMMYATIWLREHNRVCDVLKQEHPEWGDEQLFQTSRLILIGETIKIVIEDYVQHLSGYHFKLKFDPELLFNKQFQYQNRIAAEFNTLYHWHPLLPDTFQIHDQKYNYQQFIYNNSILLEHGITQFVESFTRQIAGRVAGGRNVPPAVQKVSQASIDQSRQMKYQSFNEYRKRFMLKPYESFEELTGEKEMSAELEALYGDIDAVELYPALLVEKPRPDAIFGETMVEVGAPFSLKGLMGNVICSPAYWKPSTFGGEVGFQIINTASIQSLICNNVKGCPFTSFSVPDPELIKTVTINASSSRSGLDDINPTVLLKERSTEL
Kind of data set: Cox-2 assay: human recombinant cyclooxygenase-2, PGE2 by EIA. Format: biochemical. The note with it: human recombinant enzyme; for IC50: 0.3 μM arachidonic acid, PGE2; for inhibition at 10 µM: compounds are screened at 10 μM. As for the experimental part:
Test compound and/or vehicle is pre-incubated with 0.11 U cyclooxygenase-2, 1 mM reduced glutathione (GSH), 500 μM phenol and 1 μM hematin for 15 minutes at 37° C. The reaction is initiated by addition of 0.3 μM arachidonic acid as substrate in Tris-HCl pH 7.7 and terminated after a 5 minute incubation at 37° C. by addition of 1N HCl. Following centrifugation, substrate conversion to PGE2 is measured by an Amersham EIA kit. Compounds are screened at 10 μM. […] J. Physiol.

For data set [5], the system named is Daudi human Burkitt Lymphoma derived tumors. Put plainly: Daudi lymphoma murine xenograft model, efficacy. The class given is in vivo, male SCID mice. The note with it: for mean tumor volume at termination of the study: p.o. in sesame oil, compound 47 250, compound 36 (printed 26) 250, compound 1 125, R-etodolac 400 mg/kg/d, control 1583 mm^3; for 4× Growth: time for the tumors to grow to 4× the initial volume at dosing, control 8.9 d; for 8× Growth: time for the tumors to grow to 8× the initial volume at dosing, control 14.5 d. As for the experimental part: Male SCID mice, 6-8 weeks of age, obtained from Simonsen Laboratories, Inc. (Gilroy, Calif.) were housed in groups of five.
The Daudi human Burkitt Lymphoma cells were obtained from American Type Culture Collection and were inoculated subcutaneously (1.0×10^7 cells/mouse) on the flanks of SCID mice. After the tumors reached approximately 100 mm^3 treatment was initiated.
Body weights and tumor volume of all mice were measured and recorded twice weekly. Tumors were measured in three dimensions and volume calculated using the formula: […]. Time for the tumors (days) to grow to 4× and 8× the initial volume at dosing were assessed. Study compounds were administered at 125 or 250 mg/kg/day (M-F) via oral gavage until the end of the study.
The efficacy of chlorambucil (2 and 3 mg/kg/d), (R-etodoalc) (400 mg/kg/d) and compound 47 (250 mg/kg/d), compound 26 (250 mg/kg/d), and compound 1 (125 mg/kg/d) against Daudi derived tumors in male SCID mice were studied. R-etodolac and compounds 1, 26 and 47 were prepared in sesame oil. Both chlorambucil (ip, 0.1 ml) and compounds of the invention (per os [p.o.], 0.31 ml) were dosed daily (Monday to Friday) for two weeks. SDX-101 (0.31 ml) was dosed p.o. daily until the end of the study. […] However, all treated mice recovered after Day 2 and maintained their weights. There was no body weight loss observed in other treatment groups. At termination of the study, the control group mean tumor volume was 1583 mm^3. The mean tumor volume of chlorambucil treated groups were 864 and 766 mm^3 with 2 and 3 mg/kg/d chlorambucil treatment, respectively. The mean tumor volume of R-etodolac and compounds 1, […] and 47 were 802, 996, 1011, and 1157 mm^3 with compounds 47, 36, 1 and R-etodolac treatment, respectively. […] At termination of the study, tumor samples along with liver, kidney, and spleen samples from each group were collected and fixed in 10% buffered formalin for histopathology.

In data set [6] the test system is PBL (peripheral blood leukocytes). Kind of data set: Cell cytotoxicity, MTT assay, PBL. The note with it: Leukocyte, 72 h, three days incubation. The class given is cell-based. As for the experimental part:
as §1

In data set [7] the test system is Cyclin D1 protein in LNCaP cells. Put plainly: Western blot of Cyclin D1 protein in LNCaP cell lysates. The conditions noted are these: LNCaP cell lysates from treated cells. Format: cell-based. On the technique in general: A western blot detects proteins with antibodies after separation by electrophoresis.
The target of the next data set is T2, COX-1 (Homo sapiens, UniProt P23219).
T2 construct: endogenous in cells; host or cells: human platelets
Kind of data set: Cox-1 assay: PGE2 formation in human platelets. Format: cell-based. The note with it: for IC50: arachidonic acid 100 μM, PGE2; for inhibition at 10 µM: compounds are screened at 10 μM. As for the experimental part:
Test compound and/or vehicle is incubated with human platelets (10^8/ml) containing the phospholipase inhibitor MLnFP (100 μM) for 15 minutes at 37° C. Arachidonic acid (100 μM) is then added for a further 15 minute incubation period. The reaction is stopped by addition of 1 N HCl and neutralized with 1N NaOH. PGE2 levels in the supernatant are determined using the Amersham EIA kit. […]

T2 sequence (P23219 24-599): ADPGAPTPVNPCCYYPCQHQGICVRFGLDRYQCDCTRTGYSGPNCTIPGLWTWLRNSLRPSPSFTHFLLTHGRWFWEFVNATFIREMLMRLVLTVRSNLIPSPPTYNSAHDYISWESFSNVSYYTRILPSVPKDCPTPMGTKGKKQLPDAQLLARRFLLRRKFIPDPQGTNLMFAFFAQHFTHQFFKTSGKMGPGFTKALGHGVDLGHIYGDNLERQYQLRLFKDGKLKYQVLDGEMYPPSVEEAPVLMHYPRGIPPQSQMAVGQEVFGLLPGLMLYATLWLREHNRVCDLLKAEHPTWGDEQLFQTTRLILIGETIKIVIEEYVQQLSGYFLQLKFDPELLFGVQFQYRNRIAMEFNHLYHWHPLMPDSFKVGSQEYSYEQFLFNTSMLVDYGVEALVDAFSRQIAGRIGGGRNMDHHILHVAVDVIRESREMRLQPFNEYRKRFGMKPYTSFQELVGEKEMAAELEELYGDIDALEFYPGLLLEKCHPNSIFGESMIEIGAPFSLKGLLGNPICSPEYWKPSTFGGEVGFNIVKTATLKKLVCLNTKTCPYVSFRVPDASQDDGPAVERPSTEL

Usually IC50 stands for the point on the concentration scale where inhibition reaches its midpoint. The term melting point denotes the temperature of the solid-liquid transition. `CCC1(CCO)OCCc2c1[nH]c1c(C)cccc21` (stereo not drawn) [Compound 25, 2-(1-ETHYL-8-METHYL-1,3,4,9-TETRAHYDRO-PYRANO[3,4-b]INDOL-1-YL)-ETHANOL] yielded a melting point of 68 °C. This compound had an IC50 in data set [1] of 60 µM.
The inhibition is the drop in the measured response relative to a control, in per cent. For the compound `CCC1(CCO)OCCc2c1[nH]c1c(C(C)C)cccc21` (stereo not drawn) [Compound 36, 2-(1-ETHYL-8-ISOPROPYL-1,3,4,9-TETRAHYDRO-PYRANO[3,4-b]INDOL-1-YL)-ETHANOL], the half-inhibitory concentration (IC50) in data set [2] is 160 µM; in the data set on primary CLL cells, 50 µM; in data set [1], 30 µM; in data set [4], over 300 µM; in [6] it was 160 µM; at COX-1, over 300 µM. Also, the “cyclin D1 mRNA expression” value in data set [3] was “inhibit cyclin D1 mRNA expression”. Further, the inhibition at 10 µM in [4] was 18%; against COX-1, -4%. In addition, the “mean tumor volume at termination of the study” value (from here on “mean tumor volume”) in [5] is listed as 996 mm^3. Further, the “4× Growth” value in data set [5] was determined as 13.5 days. In addition, the “8× Growth” value in [5] was found to be 20.8 days. Moreover, in [7], the “Cyclin D1 protein expression (Western blot)” value (“Cyclin D1 protein expression” for short) was “reduced Cyclin D1 protein expression”.
As to `CCc1cc(Br)cc2c3c([nH]c12)C(CC)(CCO)OCC3` (stereo not drawn) [Compound 47, 2-(6-BROMO-1,8-DIETHYL-1,3,4,9-TETRAHYDRO-PYRANO[3,4-b]INDOL-1-YL)-ETHANOL], the IC50 in data set [2] was 14 µM; in the data set with primary CLL cells it was 21 µM; in [1] it was 3 µM; in data set [4] it was over 100 µM; in [6] it was 60 µM; at COX-1 it was 68.6 µM. The values for the inhibition at 10 µM (in data set [4]; at COX-1) were 78% and 45%, respectively. In addition, in data set [5], the “mean tumor volume” value worked out at 802 mm^3. The “4× Growth” value in [5] worked out at 16 days. Moreover, the “8× Growth” value in [5] is 21.5 days.
`CCC1(CCO)OCCc2c1[nH]c1ccc(C)cc21` (stereo not drawn) [Compound 24, 2-(1-ETHYL-6-METHYL-1,3,4,9-TETRAHYDRO-PYRANO[3,4-b]INDOL-1-YL)-ETHANOL] came in with a melting point of 114 to 115 °C. Further, in data set [1], the IC50 was 80 µM.
`CCc1cccc2c3c([nH]c12)[C@@](CC)(CC(=O)O)OCC3` [R-etodolac, reference compound]: in data set [5], the “mean tumor volume” value stood at 1157 mm^3, the “4× Growth” value stood at 11 days and the “8× Growth” value is 17 days. In data set [7], the “Cyclin D1 protein expression” value is “reduced Cyclin D1 protein expression”.
As for `CCc1cc(-c2ccccc2)cc2c3c([nH]c12)C(CC)(CCO)OCC3` (stereo not drawn) [Compound 1, 2-(1,8-DIETHYL-6-PHENYL-1,3,4,9-TETRAHYDRO-PYRANO[3,4-b]INDOL-1-YL)-ETHANOL], the IC50 in data set [2] was 53 µM; with primary CLL cells it was 72 µM; in data set [1], 14 µM; in data set [4], under 10 µM; in data set [6], 76 µM; against COX-1, under 10 µM. Also, the “cyclin D1 mRNA expression” value in data set [3] is “inhibit cyclin D1 mRNA expression”. The inhibition at 10 µM was found to be 100% in data set [4] and 96% against COX-1. In data set [5], the “mean tumor volume” value stood at 1011 mm^3. In addition, the “4× Growth” value in data set [5] came to 15.8 days. Moreover, the “8× Growth” value in [5] was found to be 21.1 days. For the same compound, the “Cyclin D1 protein expression” value in [7] is listed as “reduced Cyclin D1 protein expression”.
For `CCC1(CCO)OCCc2c1[nH]c1ccc(Br)cc21` (stereo not drawn) [Compound 42, 2-(6-BROMO-1-ETHYL-1,3,4,9-TETRAHYDRO-PYRANO[3,4-b]INDOL-1-YL)-ETHANOL], inhibition in data set [1] was half-maximal at 12 µM (IC50). In data set [3], the “cyclin D1 mRNA expression” value was “inhibit cyclin D1 mRNA expression”. Further, in data set [7], the “Cyclin D1 protein expression” value is listed as “reduced Cyclin D1 protein expression”.
